Results on 4 compounds are retold here after patent US20180258064A1, “SOLID FORMS OF 3-(5-AMINO-2-METHYL-4-OXO-4H-QUINAZOLIN-3-YL)-PIPERIDINE-2,6-DIONE, AND THEIR PHARMACEUTICAL COMPOSITIONS AND USES” (Celgene Corporation, priority 2017, published 2018).

Data set [1] can be described thus: Post-DVS XRPD (solid form after the DVS cycle). In kind it is physicochemical. Conditions: XRPD pattern after DVS. From the text: The Rigaku Smart-Lab X-ray diffraction system was configured for reflection Bragg-Brentano geometry using a line source X-ray beam. The x-ray source is a Cu Long Fine Focus tube that was operated at 40 kV and 44 mA. That source provides an incident beam profile at the sample that changes from a narrow line at high angles to a broad rectangle at low angles. Beam conditioning slits are used on the line X-ray source to ensure that the maximum beam size is less than 10 mm both along the line and normal to the line. The Bragg-Brentano geometry is a para-focusing geometry controlled by passive divergence and receiving slits with the sample itself acting as the focusing component for the optics. The inherent resolution of Bragg-Brentano geometry is governed in part by the diffractometer radius and the width of the receiving slit used. Typically, the Rigaku Smart-Lab is operated to give peak widths of 0.1° 2θ or less. The axial divergence of the X-ray beam is controlled by 5.0° Soller slits in both the incident and diffracted beam paths. Powder samples were prepared in a low background Si holder using light manual pressure to keep the sample surfaces flat and level with the reference surface of the sample holder. Each sample was analyzed from 2 to 40° 2θ using a continuous scan of 6° 2θ per minute with an effective step size of 0.02° 2θ. DVS analysis was carried out using a TA Instruments Q5000 Dynamic Vapor Sorption analyzer. The instrument was calibrated with standard weights and a sodium bromide standard for humidity. Approximately 10-25 mg of sample was loaded into a metalcoated quartz pan for analysis. The sample was analyzed at 25° C. with a maximum equilibration time of one hour in 10% relative humidity (RH) steps from 5 to 95% RH (adsorption cycle) and from 95 to 5% RH (desorption cycle). The movement from one step to the next occurred either after satisfying the equilibrium criterion of 0.01% weight change or, if the equilibrium criterion was not met, after one hour. The percent weight change values were calculated using Microsoft Excel®.

Data set [2] can be described thus: Dynamic Vapor Sorption (DVS). Conditions: for DVS weight gain from 5 to 95% RH / DVS weight loss from 95 to 5% RH / DVS weight loss upon drying at 5% RH: 25° C.; for DVS weight gain from 5 to 95% RH: adsorption cycle 5 to 95% RH; for DVS weight loss from 95 to 5% RH: desorption cycle 95 to 5% RH. The class given is physicochemical. Here is the method: DVS analysis was carried out using a TA Instruments Q5000 Dynamic Vapor Sorption analyzer. The instrument was calibrated with standard weights and a sodium bromide standard for humidity. Approximately 10-25 mg of sample was loaded into a metalcoated quartz pan for analysis. The sample was analyzed at 25° C. with a maximum equilibration time of one hour in 10% relative humidity (RH) steps from 5 to 95% RH (adsorption cycle) and from 95 to 5% RH (desorption cycle). The movement from one step to the next occurred either after satisfying the equilibrium criterion of 0.01% weight change or, if the equilibrium criterion was not met, after one hour. The percent weight change values were calculated using Microsoft Excel®.

The mark [3] stands for this setting: listed as Form A of the besylate salt of Compound 1.
Setting [4] is: listed as Form A of the mesylate salt of Compound 1.
The mark [5] stands for this setting: listed as Form A of the sulfate salt of Compound 1.
The mark [6] stands for this setting: listed as Form A of the tosylate salt of Compound 1.

Structures can show the parent of a compound that is named as a salt.

`Cc1nc2cccc(N)c2c(=O)n1C1CCC(=O)NC1=O` (centres unmarked) [Compound 1 besylate salt Form A, 3-(5-amino-2-methyl-4-oxo-4H-quinazolin-3-yl)-piperidine-2,6-dione]: the “Post-DVS XRPD” value in data set [1] (listed as Besylate Form A) was “Unchanged”. Further, in data set [2] (listed as Besylate Form A), the “DVS weight gain from 5 to 95% RH” value is on record as 4.31% gain from 5 to 95% RH, the “DVS weight loss from 95 to 5% RH” value is recorded as 4.31% loss from 95 to 5% RH and the “DVS weight loss upon drying at 5% RH” value is reported as 0.16% loss upon drying at 5% RH. In data set [2] (setting [3]), the “DVS weight gain from 5 to 95% RH” value is reported as “about 4.31%” and the “DVS weight loss from 95 to 5% RH” value is on record as “about 4.31%”. The hygroscopicity result in data set [2] (wording in text, based on DVS) was “moderately hygroscopic”.
Turning to `Cc1nc2cccc(N)c2c(=O)n1C1CCC(=O)NC1=O` (centres unmarked) [Compound 1 mesylate salt Form A, 3-(5-amino-2-methyl-4-oxo-4H-quinazolin-3-yl)-piperidine-2,6-dione], the “Post-DVS XRPD” value in data set [1] (listed as Mesylate Form A) was “Mesylate Form B”. In addition, in data set [2] (setting [4]), the “DVS weight gain from 5 to 95% RH” value is given as “about 9.79%” and the “DVS weight loss from 95 to 5% RH” value is given as “about 7.98%”. For the same compound, in data set [2] (listed as Mesylate Form A), the “DVS weight gain from 5 to 95% RH” value is listed as 9.79% gain from 5 to 95% RH, the “DVS weight loss from 95 to 5% RH” value is listed as 7.98% loss from 95 to 5% RH and the “DVS weight loss upon drying at 5% RH” value is 0.17% loss upon drying at 5% RH.
Turning to `Cc1nc2cccc(N)c2c(=O)n1C1CCC(=O)NC1=O` (centres unmarked) [Compound 1 sulfate salt Form A, 3-(5-amino-2-methyl-4-oxo-4H-quinazolin-3-yl)-piperidine-2,6-dione], in data set [1], the “Post-DVS XRPD” value is listed as “unchanged”. Moreover, the “Post-DVS XRPD” value in data set [1] (listed as Sulfate Form A) is reported as “Unchanged”. Further, in data set [2] (setting [5]), the “DVS weight gain from 5 to 95% RH” value is “about 5.36%” and the “DVS weight loss from 95 to 5% RH” value is “about 5.63%”. Besides, in data set [2] (listed as Sulfate Form A), the “DVS weight gain from 5 to 95% RH” value is listed as 5.36% gain from 5 to 95% RH, the “DVS weight loss from 95 to 5% RH” value is 5.63% loss from 95 to 5% RH and the “DVS weight loss upon drying at 5% RH” value turned out to be 0.21% loss on drying at 5% RH.
Take `Cc1nc2cccc(N)c2c(=O)n1C1CCC(=O)NC1=O` (centres unmarked) [Compound 1 tosylate salt Form A, 3-(5-amino-2-methyl-4-oxo-4H-quinazolin-3-yl)-piperidine-2,6-dione]: the “Post-DVS XRPD” value in data set [1] (listed as Tosylate Form A) is reported as “Tosylate form B”. In data set [2] (setting [6]), the “DVS weight gain from 5 to 95% RH” value was “about 1.15%” and the “DVS weight loss from 95 to 5% RH” value was “about 1.17%”. In data set [2] (listed as Tosylate Form A), the “DVS weight gain from 5 to 95% RH” value is listed as 1.15% gain from 5 to 95% RH, the “DVS weight loss from 95 to 5% RH” value was 1.17% loss from 95 to 5% RH and the “DVS weight loss upon drying at 5% RH” value is given as 0.14% loss upon drying at 5%.
